Data on nine compounds can be found in patent US20230142274A1 (SIMCERE PHARMACEUTICAL CO., LTD., priority 2020, published 2023).

The data set in a line: Pharmacokinetic experiment in mouse. The data set is classed as in vivo. Conditions: female CB17-SCID mice; for half-life: mouse, plasma, read-out: Drug Elimination Half-life (converted). From the text: CB17-SCID mice were purchased from Beijing Vital River Laboratory Animal Technology Co., Ltd.
DMSO, HP-β-CD (hydroxypropyl-β-cyclodextrin), PEG400 (polyethylene glycol 400), and Vitamin E TPGS (D-α-tocopherol polyethylene glycol 1000 succinate) were purchased from Sigma.
Six female CB17-SCID mice (20 g to 30 g, aged 4 to 6 weeks) were divided randomly into two groups, with 3 mice in each group. In Group 1, the compound in a vehicle of an aqueous solution containing 5% dimethyl sulfoxide and 95% hydroxypropyl-β-cyclodextrin (10%, w/v) was administered by intravenous injection via tail vein. In Group 2, a corresponding dose of the compound in a vehicle of an aqueous solution containing 30% polyethylene glycol 400 and 70% D-α-tocopherol polyethylene glycol 1000 succinate (10%, w/v) was orally administered. The animals were fed normally with food and water before experiment. The mice in each group underwent intravenous blood collection before administration and at 0.083 h (intravenous injection group only), 0.25 h, 0.5 h, 1 h, 2 h, 4 h, 6 h, 8 h, and 24 h after administration. The collected whole blood samples were placed in K2EDTA anticoagulation tubes and centrifuged for 5 min (4000 rpm, 4° C.) to collect the plasma for testing.
10 μL of the mouse plasma sample was taken, and 150 μL of acetonitrile solvent (containing the internal standard compound) was added to precipitate protein. After the resultant was vortexed for 0.5 min and centrifuged (4700 rpm, 4° C.) for 15 min, the supernatant was subjected to 2-fold dilution with water containing 0.05% (v/v) FA and was then subjected to quantitative measurement in LC-MS/MS system (AB Sciex Triple Quad 6500+). A calibration standard curve was prepared in CB17-SCID mouse plasma along with quality control samples to determine the plasma concentration. As for a 10× diluted sample, 2 μL of sample was taken and 18 μL of blank plasma was added. After being vortexed for 0.5 min, the mixture was added with 300 μL of acetonitrile solvent (containing the internal standard compound) so as to precipitate protein. The rest of the processing steps were the same as those for the undiluted samples.

Structures are written as SMILES. Read-outs that look alike come from different tables or passages of the source.

As to `CC(C)OC(=O)NC1CCC(c2ncc(-c3ccc(Nc4ccc(F)cn4)cc3S(=N)(=O)C3CC3)s2)CC1` (stereo not drawn) [Example 81, isopropyl trans-N-[4-[5-[2-(cyclopropylsulfonimidoyl)]-4-[(5-fluoro-2-pyridyl)amino]phenyl]thiazol-2-yl]cyclohexyl]carbamate], where the note is “oral dose 25 mg/kg”, the “Drug Exposure” value was determined as 223.309 µg·h/mL; the “Max. Drug Conc.” value amounted to 13563 ng/mL; the “Peak Time of Drug Conc.” value is recorded as 5 h; the half-life (in general, the time needed for the level to fall by half in the phase considered) is 10 h.
Taken in the same sequence, the figures for `Cc1cc(Nc2ccc(-c3cnc(C4CCC(NC(=O)OC(C)C)CC4)s3)c(S(=N)(=O)C3CC3)c2)n[nH]1` (stereo not drawn) [Example 50, isopropyl trans-N-[4-[5-[2-(cyclopropylsulfonimidoyl)-4-]((5-methyl-1H-pyrazol-3-yl)amino]phenyl]thiazol-2-yl]cyclohexyl]carbamate] were 18.187 µg·h/mL, 4076 ng/mL, 1 h and 4.7 h.
For `COc1ccc(-c2ccc(-c3cnc([C@H]4CC[C@H](NC(=O)OC(C)C)CC4)s3)c([S@@](=N)(=O)C3CC3)c2)cn1` (stereo in doubt) [Example 94], where the note is “oral dose 25 mg/kg”, the “Drug Elimination Half-life” value turned out to be 3.5 h, the “Drug Exposure” value was 125.779 µg·h/mL, the “Max. Drug Conc.” value worked out at 19257 ng/mL and the “Peak Time of Drug Conc.” value is 1.3 h.
Turning to `CC(C)OC(=O)N[C@H]1CC[C@H](c2ncc(-c3ccc(Nc4cn(C)nn4)cc3S(=N)(=O)C3CC3)s2)CC1` (stereo partly drawn) [Example 54], for the setting “oral dose 25 mg/kg”, the “Drug Exposure” value was determined as 47.683 µg·h/mL, the “Max. Drug Conc.” value was determined as 6698 ng/mL, the “Peak Time of Drug Conc.” value was 1 h and the half-life is 3.1 h.
For `CC(C)OC(=O)Nc1ccc(-c2cnc([C@H]3CC[C@H](NC(=O)OC(C)C)CC3)s2)c(P(C)(C)=O)c1` [Example 1, isopropyl trans-N-[3-dimethylphosphoryl-4-[2-[4-(isopropoxycarbonylamino)cyclohexyl]thiazol-5-yl]phenyl]carbamate], for the setting “oral dose 80 mg/kg”, the “Drug Exposure” value was 211.819 µg·h/mL, the “Max. Drug Conc.” value came out at 14640 ng/mL, the “Peak Time of Drug Conc.” value came to 2.3 h and the half-life was 3.7 h.
Turning to `CC(C)OC(=O)Nc1ccc(-c2cnc([C@H]3CC[C@H](NC(=O)OC(C)C)CC3)s2)c(S(=N)(=O)C2CC2)c1` (stereo partly drawn) [Example 68, isopropyl trans-N-[3-(cyclopropylsulfonimidoyl)-4-[2-[4-(isopropoxycarbonylamino)cyclohexyl]thiazol-5-yl]phenyl]carbamate], for the setting “oral dose 25 mg/kg”, the “Drug Exposure” value was 156.699 µg·h/mL, the “Max. Drug Conc.” value amounted to 14798 ng/mL, the “Peak Time of Drug Conc.” value came to 1.3 h and the half-life is 5 h.
With `Cc1cc(Nc2ccc(-c3cnc([C@H]4CC[C@H](NC(=O)OC(C)C)CC4)s3)c(S(=O)(=O)C3CC3)c2)n[nH]1` [Example 48, isopropyl trans-(4-(5-(2-(cyclopropylsulfonyl)-4-((5-methyl-1H-pyrazol-3-yl)amino)phenyl)thiazol-2-yl)cyclohexyl)carbamate], under “oral dose 30 mg/kg”, the “Drug Exposure” value turned out to be 203.497 µg·h/mL, the “Max. Drug Conc.” value was found to be 17657 ng/mL, the “Peak Time of Drug Conc.” value is listed as 2 h and the half-life was 7.6 h.
Take `CC(C)OC(=O)Nc1ccc(-c2cnc(C3CCC(NC(=O)OC(C)C)CC3)s2)c(S(=N)(=O)C(C)C)c1` (stereo not drawn) [Example 3, isopropyl trans-N-[4-[2-[4-(isopropoxycarbonylamino)cyclohexyl]thiazol-5-yl]-3-(isopropylsulfonimidoyl)phenyl]carbamate]: under “oral dose 80 mg/kg”, the “Drug Exposure” value came out at 271.377 µg·h/mL, the “Max. Drug Conc.” value is 15438 ng/mL, the “Peak Time of Drug Conc.” value came out at 2.8 h and the half-life was 32 h.
For the compound `Cc1cc(Nc2ccc(-c3cnc([C@H]4CC[C@H](NC(=O)OC(C)C)CC4)s3)c(S(=O)(=O)C3COC3)c2)n[nH]1` [Example 92, isopropyl trans-N-[4-[5-[4-[(5-methyl-1H-pyrazol-3-yl)amino]-2-(oxetan-3-ylsulfonyl)phenyl]thiazol-2-yl]cyclohexyl]carbamate], under “oral dose 25 mg/kg”, the “Drug Exposure” value was found to be 40.08 µg·h/mL, the “Max. Drug Conc.” value was 8038 ng/mL, the “Peak Time of Drug Conc.” value worked out at 1 h and the half-life was 3.6 h.
